From patent US12286435B2, “Compound having benzo seven-membered ring structure, preparation method therefor, and use thereof” (BIONNA (BEIJING) MEDICAL TECHNOLOGY CO., LTD., priority 2019, dated 2025)
Where “and” joins values, the source holds several entries; their conditions need not be identical. Equal values may be shown once. Read-outs that look alike come from different tables or passages of the source.

How the values were obtained:
BRD4 BD1 protein = BRD4 BD1 protein (Homo sapiens (Human), UniProt O60885); experiment: Fluorescence polarization binding affinity (Ki) with BRD4 BD1 protein
BRD4 BD2 protein = BRD4 BD2 protein (Homo sapiens (Human), UniProt O60885); experiment: Fluorescence polarization binding affinity (Ki) with BRD4 BD2 protein
[1] = tested on: multiple myeloma MM.1S cell line; experiment: Cell viability (CCK-8), multiple myeloma MM.1S; type: cell-based; settings: Homo sapiens, MM1.S, 96 h, MM.1S cells, 4 days, CCK-8, 50% inhibition of cell growth
Protocol: 3. Determination of cell viability of the compound
The sample to be tested was dissolved with 100% dimethyl sulfoxide to prepare a 20 mM stock solution of the compound, which was diluted with 100% dimethyl sulfoxide to the highest compound concentration required for the experiment (2.5 mM).
First, 145 uL of a complete cell culture medium was added to wells B1-G1 of a 96-well flat-bottomed tansparent cell culture plate, and 100 uL of the complete medium was added to wells B2-G12, respectively. Then, 5 uL of the 2.5 mM solution of the compound was added to wells B1-D1 and E1-G1 respectively, and then diluted gradiently by 3-folds to B12-D12 and E12-G12 in sequence. Finally, 50 uL of the solution of the cells to be tested was added to each well, with about 3000-5000 cells per well, and a total volume of 150 uL per well.
In the experiment, in addition to the tested compound, two other control groups were set up: 1) a control group adding the cells and the complete medium, but without adding the compound; 2) a control group adding the complete medium only, without adding the cells and the compound. The 96-well plate was placed in a 37° C. cell culture incubator containing 5% carbon dioxide for 4 days, added with 15 uL of a CCK-8 reagent per well, and then incubated at 37° C. for 2-4 hours. The 96-well plate was read on a TECAN microplate reader, and the absorbance value at 450 nm wavelength was taken.
The effect of different concentrations of the compound on cell viability was calculated by the following equation: [absorption value of the experimental group−absorption value of pure cell culture medium without the cells or the compound]/[absorption value of the control group with the tumor cells but no testing compound−absorption value of pure cell culture medium without the cell or the compound]×100%.
The above data were precessed by software, and the IC50 value was the concentration of the compound corresponding to the 50% inhibition rate of cell growth.
Based on the above test method of the compound on cell viability, a variety of […] cancer cell lines were tested, using multiple myeloma MM.1S, breast cancer MDA-MB-231 and leukemia MV4-11 cell lines as exemples. Using this test method, the IC50 values of partial compounds in the examples of the present invention measured in multiple myeloma MM.1S, breast cancer MDA-MB-231 cell lines and leukemia MV4-11 cell lines were shown in Table 2.

[2] = fluorescence polarization, Ki calculated from IC50

Compound	Ki (BRD4 BD1 protein; [2])	Ki (BRD4 BD2 protein; [2])	IC50 [1] [nM]	Ki (BRD4 BD1 protein) [nM]	Ki (BRD4 BD2 protein) [nM]
COc1ccc2c(c1)C(Nc1ccc(C)cc1)CCc1onc(C)c1-2 (centres unmarked) [BB188, 8-methoxy-1-methyl-N-(p-tolyl)-5,6-dihydro-4H-benzo[6,7]cyclohepta[1,2-d]isoxazol-6-amine]	94.2 nM	41.4 nM	805	–	–
COc1ccc2c(c1)C(Nc1ccc(F)cc1)CCc1onc(C)c1-2 (centres unmarked) [BB189, N-(4-fluorophenyl)-8-methoxy-1-methyl-5,6-dihydro-4H-benzo[6,7]cyclohepta[1,2-d]isoxazol-6-amine]	172 nM	92.1 nM	230	–	–
CCc1nnn2c1-c1ccc(-c3cnn(C)c3)cc1C(Nc1ccc(Cl)cc1)CC2 (centres unmarked) [BE02, N-(4-chlorophenyl)-1-ethyl-9-(1-methyl-1H-pyrazol-4-yl)-6,7-dihydro-5H-benzo[c][1,2,3]triazolo[1,5-a]azepin-7-amine]	128 nM	42.8 nM	138	–	–
Cc1nnn2c1-c1ccc(-c3cnn(C)c3)cc1C(Nc1ccc(Cl)cc1)CC2C (centres unmarked) [BE25, N-(4-chlorophenyl)-1,5-dimethyl-9-(1-methyl-1H-pyrazol-4-yl)-6,7-dihydro-5H-benzo[c][1,2,3]triazolo[1,5-a]azepin-7-amine]	20.8 nM	9.4 nM	3.47	–	–
Cn1cc(-c2ccc3c(c2)C(Nc2ccc(Cl)cc2)CCn2nnc(C4CC4)c2-3)cn1 (centres unmarked) [BE44, N-(4-chlorophenyl)-1-cyclopropyl-9-(1-methyl-1H-pyrazol-4-yl)-6,7-dihydro-5H-benzo[c][1,2,3]triazolo[1,5-a]azepin-7-amine]	173 nM	48.1 nM	989	–	–
Cc1nnn2c1-c1ccc(-c3cnn(C)c3)cc1C(Oc1ccc(F)cc1F)CC2 (centres unmarked) [BE95, 7-(2,4-difluorophenoxy)-1-methyl-9-(1-methyl-1H-pyrazol-4-yl)-6,7-dihydro-5H-benzo[c][1,2,3]triazolo[1,5-a]azepine]	577 nM	86.9 nM	3190	–	–
Cc1cc(NC2CCn3nnc(C)c3-c3ccc(-c4cnn(C)c4)cc32)n(C)n1 (centres unmarked) [BE114, N-(1,3-dimethyl-1H-pyrazol-5-yl)-1-methyl-9-(1-methyl-1H-pyrazol-4-yl)-6,7-dihydro-5H-benzo[c][1,2, 3]triazolo[1,5-a]azepin-7-amine]	45.4 nM	7 nM	775	–	–
Cc1nnn2c1-c1ccc(-c3cnn(C)c3)cc1C(Nc1ccnn1C)CC2 (centres unmarked) [BE118, 1-methyl-9-(1-methyl-1H-pyrazol-4-yl)-N-(1-methyl-1H-pyrazol-5-yl)-6,7-dihydro-5H-benzo[c][1,2,3] triazolo[1,5-a]azepin-7-amine]	272 nM	23.6 nM	604	–	–
Cc1nnn2c1-c1ccc(-c3cnn(C)c3)cc1C(Oc1ccc(Cl)cc1)CC2 (centres unmarked) [BE128, 7-(4-chlorophenoxy)-1-methyl-9-(1-methyl-1H-pyrazol-4-yl)-6,7-dihydro-5H-benzo[c][1,2,3]triazolo[1,5-a]azepine]	176 nM	17.1 nM	689	–	–
Cc1nnn2c1-c1ccc(-c3cnn(C)c3)cc1C(Nc1cc(C3CC3)nn1C)CC2 (centres unmarked) [BE130, N-(3-cyclopropyl-1-methyl-1H-pyrazol-5-yl)-1-methyl-9-(1-methyl-1H-pyrazol-4-yl)-6,7-dihydro-5H-benzo[c][1,2,3]triazolo[1,5-a]azepin-7-amine]	139 nM	29.9 nM	171	–	–
CC(=O)N1CC=C(c2ccc3c(c2)C(Nc2cccc(Cl)c2)CCn2nnc(C)c2-3)CC1 (centres unmarked) [BH29, 1-(4-(7-((3-chlorophenyl)amino)-1-methyl-6,7-dihydro-5H-benzo[c][1,2,3]triazolo[1,5-a]azepin-9-yl)-3,6-dihydropyridin-1(2H)-yl)ethan-1-one]	39.5 nM	1.26 nM	1	–	–
Cc1nnn2c1-c1ccc(C3=CCN(C(C)C)CC3)cc1C(Nc1cccc(Cl)c1)CC2 (centres unmarked) [BH32, N-(3-chlorophenyl)-9-(1-isopropyl-1,2,3,6-tetrahydropyridin-4-yl)-1-methyl-6,7-dihydro-5H-benzo[c][1,2,3]triazolo[1,5-a]azepin-7-amine 2,2,2-trifluoroacetate]	525 nM	9.75 nM	119	–	–
CCN1CC=C(c2ccc3c(c2)C(Nc2cccc(OC)c2)CCn2nnc(C)c2-3)CC1 (centres unmarked) [BH33, 9-(1-ethyl-1,2,3,6-tetrahydropyridin-4-yl)-N-(3-methoxyphenyl)-1-methyl-6,7-dihydro-5H-benzo[c][1,2,3]triazolo[1,5-a]azepin-7-amine 2,2,2-trifluoroacetate]	1780 nM and 693 nM	38.6 nM and 27.9 nM	187	–	–
COc1cccc(NC2CCn3nnc(C)c3-c3ccc(C4=CCN(C(C)C)CC4)cc32)c1 (centres unmarked) [BH37, 9-(1-isopropyl-1,2,3,6-tetrahydropyridin-4-yl)-N-(3-methoxyphenyl)-1-methyl-6,7-dihydro-5H-benzo[c][1,2,3]triazolo[1,5-a]azepin-7-amine 2,2,2-trifluoroacetate]	1880 nM and 1560 nM	61.9 nM and 28.3 nM	352	–	–
COC(=O)Cc1ccc(NC2CCn3nnc(C)c3-c3ccc(-c4cnn(C)c4)cc32)cc1 (centres unmarked) [LB38, methyl 2-(4-((1-methyl-9-(1-methyl-1H-pyrazol-4-yl)-6,7-dihydro-5H-benzo[c][1,2,3]triazolo[1,5-a]azepin-7-yl)amino)phenyl)acetate]	–	–	32.9	–	–
Cc1nnn2c1-c1ccc(-c3cnn(C)c3)cc1C(Nc1cccc(CCO)c1)CC2 (centres unmarked) [LB71, 2-(3-((1-methyl-9-(1-methyl-1H-pyrazol-4-yl)-6,7-dihydro-5H-benzo[c][1,2,3]triazolo[1,5-a]azepin-7-yl)amino)phenyl)ethanol]	–	–	151	–	–
Cc1nnn2c1-c1ccc(C3=CCN(C4CCC4)CC3)cc1C(Nc1cccc(Cl)c1F)CC2 (centres unmarked) [RE30, N-(3-chloro-2-fluorophenyl)-9-(1-cyclobutyl-1,2,3,6-tetrahydropyridin-4-yl)-1-methyl-6,7-dihydro-5H-benzo[c][1,2,3]triazolo[1,5-a]azepin-7-amine 2,2,2-trifluoroacetate]	–	–	–	413	30.2
Cc1nnn2c1-c1ccc(C3=CCNCC3)cc1C(Nc1cccc3[nH]ccc13)CC2 (centres unmarked) [WA78, 2,2,2-trifluoroacetate]	281 nM	19.8 nM	–	–	–
Cc1nnn2c1-c1ccc(C3=CCNCC3)cc1C(Nc1ccc3[nH]ccc3c1)CC2 (centres unmarked) [WA82, N-(1H-indo1-5-yl)-1-methyl-9-(1,2,3,6-tetrahydropyridin-4-yl)-6,7-dihydro-5H-benzo[c][1,2,3]triazolo[1,5-a]azepin-7-amine 2,2,2-trifluoroacetate]	436 nM	53.6 nM	–	–	–
Cc1nnn2c1-c1ccc(C3=CCNCC3)cc1C(Nc1ccc3cc[nH]c3c1)CC2 (centres unmarked) [WA83, N-(1H-indo1-6-yl)-1-methyl-9-(1,2,3,6-tetrahydropyridin-4-yl)-6,7-dihydro-5H-benzo[c][1,2,3]triazolo[1,5-a]azepin-7-amine 2,2,2-trifluoroacetate]	431 nM	88.6 nM	–	–	–
N-(4-chlorophenyl)-9-(3,6-dihydro-2H-pyran-4-yl)-1-methyl-6,7-dihydro-5H-benzo[c][1,2,3]triazolo[1,5-a]azepin-7-amine [LD31]	–	–	–	39.1	17.1

Now from value to compound, other results behind:

Ki (BRD4 BD1 protein; [2])	Ki (BRD4 BD2 protein; [2])	IC50 [1] [nM]	Compound	Ki (BRD4 BD1 protein) [nM]	Ki (BRD4 BD2 protein) [nM]
9.92 ± 3.36 nM	< 1 nM	–	Cc1nnn2c1-c1ccc(-c3cnn(C)c3)cc1[C@H](Nc1cccc(Cl)c1)CC2 [RE124, (R)—N-(3-chlorophenyl)-1-methyl-9-(1-methyl-1H-pyrazol-4-yl)-6,7-dihydro-5H-benzo[c][1,2,3]triazolo[1,5-a]azepin-7-amine]	–	–
4.15 ± 0.21 nM	< 1 nM	–	Cc1nnn2c1-c1ccc(-c3cnn(C)c3)cc1[C@H](Nc1ccc(Cl)cc1)CC2 [RE127, (R)—N-(4-chlorophenyl)-1-methyl-9-(1-methyl-1H-pyrazo1-4-yl)-6,7-dihydro-5H-benzo[c][1,2,3]triazolo[1,5-a]azepin-7-amine]	–	–
2.66 ± 0.37 nM	< 1 nM	–	CCn1cc(-c2ccc3c(c2)[C@H](Nc2ccc(Cl)cc2)CCn2nnc(C)c2-3)cn1 [RE136, (R)—N-(4-chlorophenyl)-9-(1-ethyl-1H-pyrazol-4-yl)-1-methyl-6,7-dihydro-5H-benzo[c][1,2,3]triazolo[1,5-a]azepin-7-amine]	–	–
719 nM	20.7 nM and 47.4 nM	–	Cc1nnn2c1-c1ccc(C3=CCN(C4CCCC4)CC3)cc1C(Nc1ccc(F)c(Cl)c1)CC2 (centres unmarked) [WYA10, N-(3-chloro-4-fluorophenyl)-9-(1-cyclopentyl-1,2,3,6-tetrahydropyridin-4-yl)-1-methyl-6,7-dihydro-5H-benzo[c][1,2,3]triazolo[1,5-a]azepin-7-amine 2,2,2-trifluoroacetate]	–	–
